The test system of one data set is H23. The data set is described as follows: Cell proliferation assay, 2D (IncuCyte live cell imaging). In kind it is cell-based. The protocol: (§1) The cells grown in 2D cultures were treated with various concentrations of the drug, and the effect on cell proliferation was determined in real time using the live cell proliferation assay (IncuCyte, Essen Bioscience, Inc.) as described in the methods.
(§2) Cell proliferation and apoptosis assay: Cell proliferation assays were performed using cell lines stably transfected with NucLight Red Lentivirus (Essen BioScience) to accurately visualize and count the nucleus of a single cell. Cells were seeded on a 96-well plate and allowed to adhere for 24 h. Test compounds were added at indicated concentrations. Caspase-3/7 Green Apoptosis Reagent (Essen BioScience) was also added as a green fluorescent indicator of caspase3/7-mediated apoptotic activity. To monitor cell proliferation and apoptosis over time, the plate was placed in the IncuCyte S3 Live Cell Imaging System (Essen BioScience) and images were acquired every 2 hours. Data analysis was generated by the IncuCyte software using a red fluorescence mask to accurately count each cell nucleus and a green fluorescence mask to measure apoptosis over time. 3D spheroid assay 3D spheroid experiments were performed using cell lines stably transfected with NucLight Red Lentivirus (Essen BioScience) to visualize red fluorescence as an indicator of cell viability. Cells were seeded on a 96-well ultra-low attachment plate and allowed to form spheroids overnight. Drug treatment was added as indicated along with Cytotox Green Reagent (Essen BioScience), used as a green fluorescence indicator of cell death due to loss of cell membrane integrity. To monitor cell proliferation and apoptosis over time, the plate was placed in the IncuCyte S3 Live Cell Imaging System (Essen BioScience) and images were acquired every 2 hours. Data analysis was generated by the IncuCyte software using a red fluorescence mask to accurately measure intensity and area of red fluorescence, indicating spheroid viability and a green fluorescence mask, indicating cell death. Cell cycle analysis.

A further data set concerns H358. The data set is described as above. In kind it is cell-based. To be noted: Homo sapiens, NCI-H358. How it is done: as §1, §2
Another data set deals with SW1573. Described as above. In kind it is cell-based. To be noted: for IC50 / inhibition of cell growth at last time point: SW1573; for inhibition of cell growth at last time point: 96 hours. How it is done: The cells were seeded at density of 10000 cells/well 12 hours prior to the experiment. Once the cells attached to the plate the media was removed and the drugs were added to the cells. […] Cell proliferation was observed using the IncuCyte Live Imaging System for 72 hrs.
Knockdown of ITGB4 (Cat #SR302473C) at the mRNA level in the SW1573 cells was done using siRNAs purchased from OriGene Technologies (Rockville, Md., USA). JetPRIME transfection reagent (Polyplus Transfection, Illkirch, France) was used to transfect the siRNAs according to the manufacturer's protocol. Cells were seeded in 6-well plates (200,000 cells/well) and allowed to adhere overnight. Next day, 10 nM siRNA was transfected with 4 μl jetPRIME reagent in complete growth medium for each well. Next day cells were trypsinized, counted and re-plated on the 96 well plate for cell proliferation and drug assay. […] Cell growth medium was changed the next day and expression was detected 72 h post-transfection by immunoblotting.
as §1, §2

A further data set relates to SW1463. The data set is described as follows: Cell proliferation, colorectal G12C homozygous cell line. The format is cell-based. To be noted: Homo sapiens, SW1463, read-out: inhibition of proliferation. The source says:
For this experiment the inventors chose SW837 and SW1463 colorectal cell line. The SW837 cell is heterozygous for the G12C mutation whereas the SW1463 is homozygous for the G12C mutation. A stable cell line expressing mKATE2 for Incucyte live cell imaging and analysis was generated.

Data set [1] concerns SW1573 cells. The data set is described as follows: Zebrafish larvae SW1573 xenotransplant. The format is in vivo. The protocol: The inventors microinjected SW1573 cells into the perivitelline space of 48 hour post-fertilization (hpf) zebrafish larvae.
The test system of another data set is H23 cells. The experiment in a line: Zebrafish larvae H23 xenotransplant. In kind it is in vivo. To be noted: 72 h, 12 µM.
Data set [2] deals with SW1573 cells. The data set is described as follows: Protein array of global phosphorylation changes. In kind it is cell-based. To be noted: IC50 concentration; 72 hours. How it is done: The phosphorylation changes were analyzed employing the AVM BioMed protein array platform.
For data set [3], the system named is WNT2, CFTR and CCL2 expression in H23 cells. The experiment in a line: qPCR validation of RNAseq. In kind it is cell-based. How it is done: The drug treatment what initiated at dose of 1 μM which was finally raised up to 7.5 μM. […] Further, using qPCR assay we validated the RNAseq data and observed more than 40 fold induction in expression of various genes such as WNT2, CFTR and CCl2. (FIGS. 17D-17F). Further the analysis also identified activation of MYC and E2F Target Hall Mark Pathways which may help H23 cells in withstanding drug toxicity (data not shown).
Quantitative real-time PCR and RNAseq: Quantitative real-time PCR (qPCR) reactions were performed using TaqMan Universal PCR Master Mix (Thermo Fisher Scientific, Waltham, Mass.) and analyzed by the Quant Studio? Real-time PCR system (Life Technologies, Grand Island, N.Y.). Total RNA isolation and on-column DNase digestion from cells were performed basing on the manufacturer's protocol RNeasy Plus Mini Kit (Qiagen Cat #: 74134). 1 ug of RNA was used to synthesize the cDNA according to the one step cDNA synthesis kit from QuantaBio (Cat #: 101414-106). TaqMan probes were purchased from ThermoFisher (Waltham, Mass.). The mRNA expression was analyzed using multiplex PCR for the gene of interest and GAPDH as a reference using two independent detection dyes FAM probes and VIC probes respectively. Relative mRNA expression was normalized to GAPDH signals and calculated using the delta Ct method.

Where two headings read alike, the source gives them in different places.

As to `C=CC(=O)N1CCN(c2nc(=O)n(-c3c(C)ccnc3C(C)C)c3nc(-c4c(O)cccc4F)c(F)cc23)[C@@H](C)C1` [sotorasib], the cell count in the data set with H23 (H23, 1-3 μM, 24 h, start 9,000, control 15,000) was 12,000. In addition, the IC50 was 3000 nM in the data set on H23 (Homo sapiens, NCI-H23, 72 h, H23, 72 hours, Example 6); 3200 nM in the data set with H23 (Homo sapiens, NCI-H23, H23, Example 1, FIG. 14C-14D); 63 nM in the data set on H358; 130 nM with H358 (H358, 72 hours, Example 6, read-out: IC50, cell proliferation); 800 nM in the data set with H358 (H358, Example 1, FIG. 14C-14D, read-out: IC50, cell proliferation); 9500 nM in the data set with SW1573 (Homo sapiens, 72 hours, Example 6). The same compound showed an IC50 with SW1573 (Homo sapiens, Example 1, FIG. 14C-14D) of 8000 nM. The same compound gave an inhibition at 0.3 µM with H23 (Homo sapiens, NCI-H23, H23, 0.3 μM) of about 20%. In addition, the inhibition at 10 µM was about 80% with H23 (Homo sapiens, NCI-H23, H23, 72 hours, read-out: inhibition of proliferation / cell growth); 70% with H23 (Homo sapiens, NCI-H23, H23 parental cells, FIG. 4B, read-out: inhibition of proliferation); about 50% in the data set with SW1573 (Homo sapiens, SW1573, 72 h, read-out: inhibition of proliferation / cell growth); 40% in the data set on SW1463. For the same compound, the inhibition at 5 µM in the data set with H23 (Homo sapiens, NCI-H23, H23 parental cells, 5 μM, FIG. 4B, read-out: inhibition of proliferation) was 50%. Moreover, the inhibition at 0.61 µM in the data set on H358 (H358, 0.61 μM) is about 60%. Moreover, the “inhibition of cell growth at last time point” value in the data set on SW1573 (ITGB4/β-catenin double knockdown plus sotorasib) was “about 70%”; with SW1573 (sotorasib at IC50 concentration only) it was “about 40%”. In the data set with SW1573 cells [1], the “most effective dose, drug alone (obliterates SW1573 cells)” value was determined as 12 µM. Also, the “toxic dose, drug alone” value in the data set with SW1573 cells [1] is 18 µM. In addition, the “reduction of tumor growth (median)” value with H23 cells is recorded as “about 80%”. The “number of proteins with phosphorylation changes unique to the treatment” value with SW1573 cells [2] is listed as 1482 proteins. Besides, the “number of proteins with significant phosphorylation changes” value in the data set with SW1573 cells [2] was determined as 1764 proteins. The “induction in expression of WNT2, CFTR and CCL2 (qPCR)” value in data set [3] was “more than 40 fold”.

The values are drawn from US20230285498A1, “TREATMENTS FOR CANCERS HAVING KRAS MUTATIONS” (City of Hope, priority 2020, published 2023).
